According to patent US20220031700A1, “Treatment of Acute Respiratory Distress Syndrome (ARDS)” (priority 2020, published 2022):
Entries after “also recorded” stand apart in the source; their conditions may differ.

Key:
in vivo = conditions: mouse
total IgM = test: Serum total IgM by ELISA in experimental influenza model; conditions: influenza 6.5 Lg EID50 IN; 100 mg/kg IP QD 12 days; Day 12; compared to influenza-infected/vehicle treated controls
[1] = test system: mouse model of cytokine storm; test: Evans Blue dye (EBD) assay of lung after intranasal LPS challenge; format: in vivo
TNF-alpha = test: Plasma TNF-alpha level by ELISA after intranasal LPS challenge; format: in vivo, mouse; conditions: Example 2; 100 mg/kg IP, all dosing paradigms; comparison to LPS/vehicle group
Description: (§1) Intranasal administration of LPS: The LPS challenge was carried out according to Ma et al. (2019).
(§2) Compound dosing: Animals in groups 2-5 were dosed according to the Table 2 for 6 days. Group 3 animals received 6 doses of MLR-1023 QD and a 7th dose 1 hour prior to LPS. Group 4 animals received 6 doses of MLR-1023 QD and Vehicle 1 hour prior to LPS. Group 5 animals received 6 Vehicle doses QD and 1 dose of MLR-1023 1 hour prior to LPS. On day 7, 1 hour after the last dose, animals were intranasally treated with LPS. Six hours after the instillation of LPS, animals received an IV dose of EBD. Thirty minutes later, animals were sacrificed, and the lungs were collected as previously described.

total IgG = test: Serum total IgG by ELISA in experimental influenza model; conditions: influenza 6.5 Lg EID50 IN; 100 mg/kg IP QD 12 days; Day 12; compared to influenza-infected/vehicle treated controls
[2] = test system: Influenza-specific antibody; test: Serum influenza-specific antibody by ELISA in experimental influenza model; conditions: influenza 6.5 Lg EID50 IN; 100 mg/kg IP QD 12 days; Day 12; compared to influenza-infected/vehicle treated controls
IL-6 = test: Plasma IL-6 level by ELISA after intranasal LPS challenge; format: in vivo, mouse; conditions: Example 2; 100 mg/kg IP, all dosing paradigms; comparison to LPS/vehicle group
Description: as §1, §2

[3] = test system: mouse model of cytokine storm; test: Lung Wet/Dry ratio assay after intranasal LPS challenge; format: in vivo; conditions: LPS 50 μg IN, compared to LPS/Vehicle group
Description: Intranasal administration of LPS: The LPS challenge was carried out according to Ma et al., Inflammation, 2019, 42, 1901-1912.
Compound dosing: Animals in groups 2-5 were dosed according to the Table 1 for 6 days. On day 7, 1 hour after the last dose, animals were intranasally treated with LPS. Dexamethasone (20 mg/kg PO) was administered 1 hour prior to LPS treatment. Six hours after the instillation of LPS, animals received an IV dose of EBD. Thirty minutes later, animals were sacrificed, and the lungs were collected as previously described.
as §1, §2

Cc1cccc(Oc2cnc(=O)[nH]c2)c1 [MLR-1023, tolimidone]
half-life (in vivo): ~1.5 h | serum total IgM level (total IgM): did not alter | Evans Blue content in the lung ([1]; Example 1, C57Bl/6J male mice, LPS 50 μg IN, MLR-1023 30 and 100 mg/kg IP QD 7 days, last dose 1 hr prior to LPS, dexamethasone 20 mg/kg PO 1 hr prior to LPS, compared to LPS/Vehicle group): greater than that of dexamethasone and comparable to that of animals that received no LPS; also recorded: significant dose dependent decrease | Evans Blue dye content in the lungs (plasma extravasation) ([1]; Example 2, 100 mg/kg IP QD, 6 doses plus acute dose 1 hour before LPS challenge (7×), relative to the 6-dose paradigm): comparable level of reduced plasma extravasation | Evans Blue dye content in the lungs ([1]; Example 2, 100 mg/kg IP QD, 6 doses, vehicle 1 hr prior to LPS (6×), compared to LPS/Vehicle group): significant decrease | Evans Blue dye content in the lungs (plasma extravasation) ([1]; Example 2, 100 mg/kg IP, single dose 1 hr prior to LPS challenge (1×)): did not yield reduction | plasma TNF-α concentration (TNF-alpha): did not produce significant effects | serum total IgG level (total IgG): did not alter | serum influenza-specific antibody level [2]: did not alter | plasma IL-6 concentration (IL-6): did not produce significant effects | wet/dry ratio of the lung ([3]; Example 1, C57Bl/6J male mice, MLR-1023 30 and 100 mg/kg IP QD 7 days, last dose 1 hr prior to LPS, dexamethasone 20 mg/kg PO 1 hr prior to LPS): significant dose dependent decrease | wet/dry ratio of the lung ([3]; Example 2, 100 mg/kg IP, all dosing paradigms (7×, 6×, 1×)): significant decrease
